Assay: Phase 3 randomized, double-blind, placebo- and active-controlled trial of meloxicam/rizatriptan in acute treatment of migraine (Example 1, MOMENTUM)
[1] = treatment-emergent adverse event

Structure (SMILES): CN(C)CCc1c[nH]c2ccc(Cn3cncn3)cc12 [Rizatriptan]
- proportion of patients experiencing pain relief ([…] after dosing, single dose): 52.5%
- percentage of patients experiencing sustained pain relief (from 2 hours to 24 hours after dosing): 43.9%
- proportion of patients with sustained pain freedom (from 2 hours to 48 hours): 8.8%
- Any Treatment-Emergent Adverse Event, number of subjects (single dose): 67 subjects
- Dizziness, % of subjects [1]: 2.1%
- Dizziness, number of subjects [1]: 9 subjects
- Nausea, % of subjects [1]: 4.8%
- Nausea, number of subjects [1]: 21 subjects
- Somnolence, % of subjects [1]: 2.1%
- Somnolence, number of subjects [1]: 9 subjects

— patent US20250195534A1 (AXSOME THERAPEUTICS, INC., priority 2022, published 2025)
